These results are taken from PMC11232401, “Characterization of antimalarial activity of artemisinin-based hybrid drugs” (Antimicrobial Agents and Chemotherapy, 2024).

In one data set the test system is P. falciparum 3D7 strain. More on the design: method as in PMID 31290221, PMID 34832911, PMID 38559731. The settings on record: asynchronous culture, SYBR Green I; read-out: IC50 (nM, median ± SEM) for P. falciparum 3D7 strain; cited from earlier work.
A further data set concerns P. falciparum Dd2 strain. More on the design: method as in PMID 31290221, PMID 34832911, PMID 38559731. The settings on record: asynchronous culture, SYBR Green I; read-out: IC50 (nM, median ± SEM) for P. falciparum Dd2 strain; cited from earlier work.
Another data set concerns P. berghei-infected mice. Also noted: method as in PMID 31290221, PMID 34832911, PMID 38559731. The settings on record: Peters test; cited from earlier work.
The conditions of data set [1]: in vivo; cited from earlier work.
In data set [2] the test system is Ring stages of NF54 strain P. falciparum. Nature of the data set: Antiplasmodial activity of drug combinations (pLDH, isobologram/FIC). Conditions: Plasmodium falciparum, mean (95% CI), tested in parallel with the combination of the same line. Type of data set: cell-based. The procedure: The activity of the drug combinations against the P. falciparum NF54 strain was determined as described above. In each experiment, drugs were tested alone and in combination. Twofold serial dilutions of the drug solutions were made using fixed molar ratios of 1:1, 1:3, and 3:1 for each combination and using two technical replicates (ranging from 200 to 1.0 nM). Parasite growth was determined by the pLDH method, as described above. IC50 values for each drug alone or in combination were determined, and an isobologram analysis was performed by plotting the fractional inhibitory concentrations (FIC) for each combination and its component drugs separately. Individual FIC values were calculated as the IC50 of the drug combination divided by the IC50 of the drug in isolation. A dashed line was plotted to indicate any additive effect and distinguish antagonism (above the dashed line) from synergism (below the dashed line). Three independent experiments were performed, each one containing two replicates. Each experiment was used to represent an isobologram analysis [mean and 95% confidence interval (CI)].
Values represent one experiment; each concentration of drug combination was tested in technical duplicate. Black dashed line indicates ΣFIC = 1 (absolute additivity). […] FIC index <1 is synergistic, ~1 is additive, and >1 is antagonistic. Nondetrimental interactions are 0.25 <ΣFIC <1.25.
^[a] Values are the mean and 95% confidence interval of one experiment for each concentration of compounds in duplicate.

Data set [3] relates to heme (iron II)-initiated β-hematin formation. The data set is described as follows: β-hematin inhibitory activity under reducing condition (R-BHIA). Conditions: mean (95% CI). Type of data set: biochemical. The procedure:
The compounds were dissolved in DMSO and diluted in DMSO to six different concentrations (1.0–32 mM). Hemin (Fe^III[PPIX]Cl) (BioXtra, Sigma-Aldrich) was first dissolved in 0.1 M NaOH and then suspended in an 80:20 vol/vol mixture of DMSO and propionate buffer (0.1 M, pH 5.6) to a stock solution at 8 mM. Reduced glutathione (GSH) was dissolved in 0.1 M NaOH and then adjusted to 10 mM using propionate buffer (0.1 M, pH 5.6). […] Then, 20 µL of the drug was added, and the plates were incubated for 2 h at 37°C. The plastic film was removed after drug incubation, 160 µL propionate buffer (1.0 M, pH 5.6) was added, and plates were incubated for 18 h at 37°C. BHIA under the oxidizing condition (O-BHIA) was prepared in parallel without adding GSH. Controls included wells without drugs and wells containing PBS 1× instead of propionate buffer. Afterward, the plates were centrifuged, the supernatant was discarded, and the pellets of β-hematin crystals were washed twice with pure DMSO and then water. The resulting β-hematin crystals were then dissolved in 200 µL 0.1 M NaOH and diluted to a 1:8 ratio. Aliquots were then transferred into a new plate and read by UV-visible absorbance at […]. Percent of BHIA was calculated in comparison to untreated wells (no drugs), and IC50 was then calculated. Two independent experiments were performed using three replicates of each drug concentration ([46]).
(§1) Figure S6: A summary of IC50 values derived from β-hematin inhibitory activity (BHIA). Footnotes for table: ^[a,b^] Values are mean and 95% confidence interval of one experiment, each concentration in triplicate. ^[a] Using heme (Fe[II]PPIX[Cl]) as a starting reagent. ^[b] Using hematin (Fe[III]PPIX[OH]) as a starting reagent. ^[c] […] CQ = chloroquine. R-BHIA = reducing β-hematin inhibitory activity. O-BHIA = oxidizing β-hematin inhibitory activity.

For data set [4], the system named is hematin (iron III)-initiated β-hematin formation. The data set is described as follows: β-hematin inhibitory activity under oxidizing condition (O-BHIA). Conditions: hematin as starting reagent; mean (95% CI). It is filed as biochemical. The procedure: The compounds were dissolved in DMSO and diluted in DMSO to six different concentrations (1.0–32 mM). Hemin (Fe^III[PPIX]Cl) (BioXtra, Sigma-Aldrich) was first dissolved in 0.1 M NaOH and then suspended in an 80:20 vol/vol mixture of DMSO and propionate buffer (0.1 M, pH 5.6) to a stock solution at 8 mM. Reduced glutathione (GSH) was dissolved in 0.1 M NaOH and then adjusted to 10 mM using propionate buffer (0.1 M, pH 5.6). For β-hematin inhibitory activity (BHIA) under the reducing condition (R-BHIA), hemin (10 µL) and GSH (10 µL) were distributed in a 96-well plate and homogenized, and the plates were sealed using a thin plastic film and incubated for 1 h at 37°C. Then, 20 µL of the drug was added, and the plates were incubated for 2 h at 37°C. The plastic film was removed after drug incubation, 160 µL propionate buffer (1.0 M, pH 5.6) was added, and plates were incubated for 18 h at 37°C. BHIA under the oxidizing condition (O-BHIA) was prepared in parallel without adding GSH. Controls included wells without drugs and wells containing PBS 1× instead of propionate buffer. Afterward, the plates were centrifuged, the supernatant was discarded, and the pellets of β-hematin crystals were washed twice with pure DMSO and then water. The resulting β-hematin crystals were then dissolved in 200 µL 0.1 M NaOH and diluted to a 1:8 ratio. Aliquots were then transferred into a new plate and read by UV-visible absorbance at […]. Percent of BHIA was calculated in comparison to untreated wells (no drugs), and IC50 was then calculated. Two independent experiments were performed using three replicates of each drug concentration ([46]).
as §1

Another data set relates to P. falciparum. Nature of the data set: Parasite growth inhibition (cell potency). Type of data set: cell-based. Conditions: Plasmodium falciparum; strain and exposure not stated at the place.
Data set [5] deals with NF54 strain of P. falciparum. The data set is described as follows: Ring-stage-specific drug activity (pLDH). It is filed as cell-based. Conditions: Plasmodium falciparum, median ± SEM. The procedure:
Each compound was dissolved in dimethyl sulfoxide (DMSO) and diluted in RPMI-1640 medium into seven different concentrations, which were tested against CQ-susceptible strains (NF54 or D10) or a CQ-resistant strain (W2). Each well of 96-well plates was filled with 100 µL drug and 100 µL parasitized RBC (asynchronous parasite culture), which were mixed to obtain a final parasitemia of 1.0% to 1.5% and 1.0% hematocrit. Plates were incubated for 72 h at 37°C in a standard gas mixture; then, parasite growth was determined by measuring the activity of the parasite lactate dehydrogenase (pLDH) ([38]). Briefly, at the end of incubation, the cultures were carefully resuspended, and 20 µL aliquots were removed and added to 100 µL Malstat reagent in a 96-well microplate. The Malstat reagent is made of 0.125% TritonX-100, 130 mM L-lactate, 30 mM Tris buffer, and 0.62 µM 3-acetylpyridine adenine dinucleotide. After that, 20 µL 1.9 µM nitro blue tetrazolium (NBT) and 0.24 µM phenazine ethyl sulfate were added to the plate. NBT was reduced to blueformazan and spectrophotometrically read at OD 650 nm using a Synergy 4 microplate reader (BioTek, Santa Clara, USA). […] IC50 values were expressed as means of two to three independent experiments, with each drug concentration in duplicate.
The NF54 strain of P. falciparum was employed to test the drugs’ activity against ring stages and asynchronous parasite culture (all stages). The ring stages were obtained by synchronization with D-Sorbitol using a standard method ([39]). Each well of 96-well plates was filled with 100 µL each drug and 100 µL culture containing ring-stage or asynchronous parasites, which were mixed to obtain a final parasitemia of 1.0% to 1.5% and 1.0% hematocrit. […] Plates were processed using the pLDH method, and IC50 values were calculated as described above. At least two to three independent experiments were performed, using two technical replicates.
^[a] Synchronized ring-stage parasites were incubated in the presence of compounds for 6 h, drugs were removed by washing, and plates were incubated for an additional 66 h. ^[b] Asynchronous parasites were incubated in the presence of compounds for 6 h, drugs were removed by washing, and plates were incubated for an additional 66 h. ^[c] Asynchronous parasites were incubated in the presence of compounds for 72 h. ^[a,b^] Experiments were performed in parallel. ^[d] […] Parasite viability was determined by parasite lactate dehydrogenase. Data are from three experiments performed in duplicate. MFQ = mefloquine; DHA = dihydroartemisinin; SEM = standard error of the mean.

Data set [6] deals with ring stages of NF54 strain of P. falciparum. Nature of the data set: Exposure time dependence in drug activity (pLDH). Conditions: Plasmodium falciparum. Type of data set: cell-based. The procedure: Each well of 96-well plates was filled with 100 µL drug and 100 µL culture containing ring-stage P. falciparum (NF54 strain) parasites, which were mixed to obtain a final parasitemia of 1.0% to 1.5% and 1.0% hematocrit. Plates were incubated at 37°C in a standard gas mixture. After 3 h and 6 h, plates were centrifuged, cell pellets were washed as described above then returned to the incubator for an additional 69 h and 66 h, respectively. In parallel, the same experiment was left without the washing step, enabling continuous drug exposure throughout. Plates were processed using the pLDH method, and IC50 values were calculated as described above. Three independent experiments were performed using two technical replicates.
Figure S2: Exposure time dependence of antiparasitic activity against ring stages of CQ-sensitive strain NF54 of P. falciparum. Data associated to Figure 2B in the main text of the manuscript. Footnotes for table: ^[a] Synchronized ring-stage parasites were incubated in the presence of compounds at indicated times, drugs were removed by washing, and plates were incubated until 72 h.^[b] Parasites were incubated in the presence of compounds for 72 h. ^[a,b^] Experiments were performed in parallel (paired). Parasite viability was determined by parasite lactate dehydrogenase (pLDH) assay. Data are from three experiments performed in duplicate.^ [c] […] MFQ = mefloquine. DHA = dihydroartemisinin; SEM = standard error of the mean; N.S. = not statistically significant.

The IC50 is the midpoint of a concentration-inhibition curve.

Like-named read-outs stand apart in the source and are kept apart here.

In the case of `C[C@@H]1CC[C@H]2[C@@H](C)C(=O)O[C@@H]3O[C@@]4(C)CC[C@@H]1[C@]32OO4` [ART, artemisinin], the results for the IC50 in the data set with P. falciparum 3D7 strain and with P. falciparum Dd2 strain were 26.8 ± 2.4 nM and 11.3 ± 1.8 nM, respectively. Moreover, the “In vivo parasitemia reduction (%)” value in the data set on P. berghei-infected mice was 78.5 ± 9.0%.

For `CC(C)(N)CNC(=O)C[C@H]1CC[C@]2(CC1)OO[C@]1(O2)C2CC3CC(C2)CC1C3` [OZ277], the “half-life (t1/2)” value in data set [1] was 2 to 4 h.

As to `CCN(CC)CCCC(C)Nc1ccnc2cc(Cl)ccc12` (stereo not drawn) [CQ, chloroquine, reference compound], the IC50 is 10.4 nM in data set [2] (NF54, read-out: IC50, Drugs alone, ring stages NF54); 189 µM in data set [3] (reductive step 10 minutes, read-out: IC50 (µM) values of R-BHIA using heme (iron II), 10 minutes); 222 µM in data set [3] (reductive step 120 minutes, read-out: IC50 (µM) values of R-BHIA using heme (iron II), 120 minutes); 228000 nM in data set [4]; 14.5 nM in the data set on P. falciparum; 12.7 ± 2.5 nM in the data set with P. falciparum 3D7 strain. In the data set on P. falciparum Dd2 strain, the IC50 was 165 ± 16 nM.

On to `OC(c1cc(C(F)(F)F)nc2c(C(F)(F)F)cccc12)C1CCCCN1` (stereo not drawn) [MFQ, mefloquine, reference compound], for which the IC50 in [5] (asynchronous parasites, 6 h drug, wash, additional 66 h, read-out: IC50, Asynchronous) was 61.6 ± 11.9 nM; in data set [5] (asynchronous parasites, 72 h continuous drug, read-out: IC50, 72 h), 20.2 ± 1.3 nM; in data set [5] (synchronized ring stages, 6 h drug, wash, additional 66 h, read-out: IC50, Ring stages) it was 37.2 ± 5.2 nM; in [6] (NF54, 6 h drug pulse, wash, incubated until 72 h, median ± SEM, read-out: IC50, 6 h + 66 h) it was 37.2 ± 5.2 nM; in data set [6] (NF54, 72 h continuous drug, median ± SEM, read-out: IC50, 72 h) it was 10.3 ± 2.6 nM; in data set [6] (NF54, read-out: IC50, 3 h + 69 h, 3 h drug pulse, wash, incubated until 72 h, median ± SEM) it was > 600 nM. For the same compound, the IC50 in [2] (NF54, ring stages NF54, read-out: IC50, Drugs alone) was found to be 17 nM.
